Assay: Solubility test (2 ml solvent added to 2 mg derivative)
Format: physicochemical
Details: not given
Description: A solubility test was carried out by adding 2 ml of each of the solvents shown in Table 4 to 2 mg of each of the derivatives listed in Table 4.

Row | Structure (SMILES) | Solubility in acetone and methylene chloride
1 | CC1=C2OCOc3c4cc5c(c3C)OCOc3c6cc7c(c3C)OCOc3c8cc9c(c3C)OCOc3c%10cc%11c(c3C)OCOc3c%12cc%13c(c3C)OCOc3c(cc%14c(c3C)OCOc3c%15cc%16c(c3C)OCOc3c(cc%17c(c3C)OCOc3c%18cc%19c(c3C)OCOc3c(cc%20c(c3C)OCOc3c(cc%21c(c3C)OCOC1=C(C=C2C4CCCC9%10)C%21CCCC%18%17)C%20CCCC56)C%19CCCC%15%14)C%16CCCC%11%12)C%13CCCC78 (stereo not drawn) [formula (33)] | dissolved in acetone and methylene chloride

Assay: Thermal characteristics by TG/DTA
Format: physicochemical
Details: nitrogen atmosphere, temperature rise 10° C./min
From the text: TG/DTA and DSC were used for the determination of the decomposition initiation temperature, 5% mass reduction temperature, and glass transition temperature of the derivatives shown in Table 3. The glass transition temperature could not be determined in any of the compounds. All compounds were confirmed to have high heat resistance. Comparison of T3 with T3-7 in which vinyl ether was deprotected and a spacer was introduced confirmed that there were almost no changes in the decomposition initiation temperature and 5% mass reduction temperature caused by introduction of the spacer. The lower decomposition initiation temperatures of these compounds as compared with other derivatives are due to their slight acidity resulting from the hydroxyl groups. […] T3-2a decomposed in two stages, that is, first the decomposition of phthalic acid ester bond and second the decomposition of the ester bond of methacryloyl groups.

Row | Structure (SMILES) | First decomposition temperature: 5% mass decomposition temperature | First decomposition temperature: Decomposition initiation temperature
2 | C=C(C)C(=O)Oc1cc(OC(=O)C(=C)C)c2cc1C1CCCC3c4cc(c(OC(=O)C(=C)C)cc4OC(=O)C(=C)C)C4CCCC5c6cc(c(OC(=O)C(=C)C)cc6OC(=O)C(=C)C)C(CCCC6c7cc(c(OC(=O)C(=C)C)cc7OC(=O)C(=C)C)C(CCCC7c8cc(c(OC(=O)C(=C)C)cc8OC(=O)C(=C)C)C(CCCC(c8cc(c(OC(=O)C(=C)C)cc8OC(=O)C(=C)C)C(CCCC2c2cc4c(OC(=O)C(=C)C)cc2OC(=O)C(=C)C)c2cc7c(OC(=O)C(=C)C)cc2OC(=O)C(=C)C)c2cc1c(OC(=O)C(=C)C)cc2OC(=O)C(=C)C)c1cc6c(OC(=O)C(=C)C)cc1OC(=O)C(=C)C)c1cc5c(OC(=O)C(=C)C)cc1OC(=O)C(=C)C)c1cc3c(OC(=O)C(=C)C)cc1OC(=O)C(=C)C [T3-1] | 418 °C | 387 °C
3 | C=COCCOc1cc(OCCOC=C)c2cc1C1CCCC3c4cc(c(OCCOC=C)cc4OCCOC=C)C4CCCC5c6cc(c(OCCOC=C)cc6OCCOC=C)C(CCCC6c7cc(c(OCCOC=C)cc7OCCOC=C)C(CCCC7c8cc(c(OCCOC=C)cc8OCCOC=C)C(CCCC(c8cc(c(OCCOC=C)cc8OCCOC=C)C(CCCC2c2cc4c(OCCOC=C)cc2OCCOC=C)c2cc7c(OCCOC=C)cc2OCCOC=C)c2cc1c(OCCOC=C)cc2OCCOC=C)c1cc6c(OCCOC=C)cc1OCCOC=C)c1cc5c(OCCOC=C)cc1OCCOC=C)c1cc3c(OCCOC=C)cc1OCCOC=C [T3-6] | 365 °C | 336 °C
4 | OCCOc1cc(OCCO)c2cc1C1CCCC3c4cc(c(OCCO)cc4OCCO)C4CCCC5c6cc(c(OCCO)cc6OCCO)C(CCCC6c7cc(c(OCCO)cc7OCCO)C(CCCC7c8cc(c(OCCO)cc8OCCO)C(CCCC(c8cc(c(OCCO)cc8OCCO)C(CCCC2c2cc4c(OCCO)cc2OCCO)c2cc7c(OCCO)cc2OCCO)c2cc1c(OCCO)cc2OCCO)c1cc6c(OCCO)cc1OCCO)c1cc5c(OCCO)cc1OCCO)c1cc3c(OCCO)cc1OCCO [T3-7] | 348 °C | 375 °C
5 | Oc1cc(O)c2cc1C1CCCC3c4cc(c(O)cc4O)C4CCCC5c6cc(c(O)cc6O)C(CCCC6c7cc(c(O)cc7O)C(CCCC7c8cc(c(O)cc8O)C(CCCC(c8cc(c(O)cc8O)C(CCCC2c2cc4c(O)cc2O)c2cc7c(O)cc2O)c2cc1c(O)cc2O)c1cc6c(O)cc1O)c1cc5c(O)cc1O)c1cc3c(O)cc1O [T3] | 365 °C | 333 °C

Reference: patent US7705189B2, “Calixarene compound, process for producing the same, intermediate therefor, and composition thereof” (JSR Corporation, priority 2004, dated 2010)
